# Measurements reported in patent US10918626B2, “Method for improving pharmacokinetics” (Roche Palo Alto LLC, priority 2009, dated 2021).
# pIC50: −log10 of the molar value. Where two headings read alike, the source gives them in different places.
# Key:
# genotype 1 HCV replicon = experiment: cell-based potency assay employing a genotype 1 HCV replicon; settings: Hepatitis C virus
# [1] = Pharmacokinetic enhancement of R7227 by ritonavir in healthy adults; assay type: in vivo, human; settings: for concentration at 12 h / Cmax / AUC(0-inf): human, plasma; for concentration at 12 h: read-out: C12 h, GLSM; for Cmax / AUC(0-inf): N 12
# Protocol: Subjects were screened for participation in this study within 21 days before dosing. The study enrolled 14 healthy volunteers (n=14 per group). The dosing schedule is illustrated below: [table] […] was formulated into clear size 10 oval soft gelatin capsules for oral administration at a strength of 100 mg per capsule (anhydrous free acid equivalent). The capsule fill solution consists of […]-001, polyethylene glycol PEG400 (Macrogol 400), and butylated hydroxytoluene (BHT). All excipients are compendial grade (NF or EP). Gelatin Type 195 (NF, EP) is used as the bulk gel mass for the capsule shell, with small amounts of sorbitol liquid 85/70/00 (NF, EP) and water (USP) used as plasticizers. All study medications were with a meal. […] was administered orally as a single dose of a 100 mg soft gel capsule on days 1, 3 and 12. […] Blood samples (5 mL) were collected to determine plasma concentrations of […] (and metabolites when assays were available) according to the following schedule Day 1, PK samples (5 mL) were be collected before […] dosing (predose) and at 0.5, 1, 1.5, 2, 2.5, 3, 3.5, 4, 6, 8, 12, and 24 hours after […] dosing; Days 3 and 12, PK samples (5 mL) were collected before […] dosing (predose) and at 0.5, 1, 1.5, 2, 2.5, 3, 3.5, 4, 6, 8, 12, 24, 36, and 48 hours after […] dosing. Primary PK parameters of […] that were determined are Cmax and AUC0→∞. Secondary PK parameters of […] that were measured include Tmax and AUC0→last, CL/F, t1/2, C12 hr and C24 h. Analysis of variance (ANOVA) was applied to the log-transformed primary pharmacokinetic parameters. Two-sided 90% confidence intervals for the ratios of the geometric means of the primary parameters (AUC0→∞ and Cmax of […]) were derived for the following comparisons: […] Analysis of variance (ANOVA) was used to analyze all primary study parameters using the following model: Yij=μ+τi+sj+εij where Yij denotes the PK parameter to be analyzed, μ denotes the general mean of the transformed variable, τi, the fixed effect of treatment; sj the random effect of subject; εij (error). The random deviations εij are assumed to be independent and normally distributed with zero mean and common variance σ^2. The group comparisons τ […]+Ritonavir-τ[…], the residual variance σ^2, and the 90% confidence limits for the group comparisons were estimated from the ANOVA model. For log-transformed variables (AUC0→∞ and Cmax), the ratio of true group means and the confidence limits for the corresponding ratio of means of the untransformed variables will be calculated by exponentiation of the least squares means differences and the confidence limits for the transformed values, respectively.
# CYP isozymes = experiment: cytochrome P450 phenotyping using chemical inhibitors; assay type: in vitro ADME
# Text: (§1) Therefore, a cytochrome P450 monooxygenase inhibitor in an amount effective to inhibit metabolism of the protease inhibitor could increase the bioavailability of R7227 compared to administration in the absence of the CYP inhibitor.
# NS3/4A protease = target: T1, NS3/4A protease (Hepatitis C virus genotype 1a, UniProt P27958); experiment: NS3/4A proteolysis inhibition; assay type: biochemical; settings: read-out: 50% inhibitory concentration (IC50), NS3/4A proteolysis
# T1 construct: a serine protease encoded in the NS3 region
# T1 sequence (P27958 1658-1711): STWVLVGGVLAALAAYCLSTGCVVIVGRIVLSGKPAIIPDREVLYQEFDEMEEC
# T1 sequence (P27958 1027-1657): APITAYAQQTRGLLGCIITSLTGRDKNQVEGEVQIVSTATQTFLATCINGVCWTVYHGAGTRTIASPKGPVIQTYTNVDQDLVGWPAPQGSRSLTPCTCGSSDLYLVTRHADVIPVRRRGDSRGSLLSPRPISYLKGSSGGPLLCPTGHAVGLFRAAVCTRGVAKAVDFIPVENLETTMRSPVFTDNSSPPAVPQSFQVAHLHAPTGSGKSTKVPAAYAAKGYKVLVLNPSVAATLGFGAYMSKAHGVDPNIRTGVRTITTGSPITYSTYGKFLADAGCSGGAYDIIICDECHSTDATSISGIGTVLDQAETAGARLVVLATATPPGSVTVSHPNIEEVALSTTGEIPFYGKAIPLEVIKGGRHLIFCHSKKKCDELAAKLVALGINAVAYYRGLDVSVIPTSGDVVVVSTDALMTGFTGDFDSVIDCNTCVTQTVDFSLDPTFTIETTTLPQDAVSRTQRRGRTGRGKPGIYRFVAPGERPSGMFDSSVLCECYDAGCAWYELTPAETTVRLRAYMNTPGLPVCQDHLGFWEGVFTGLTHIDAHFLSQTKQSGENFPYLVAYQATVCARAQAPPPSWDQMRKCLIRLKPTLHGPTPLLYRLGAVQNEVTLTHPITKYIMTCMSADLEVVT
# [2] = SAD study in healthy volunteers; assay type: in vivo, human
# Text: (A. A. Mathias et al., Clin. Pharmacol. Ther. 2009 85(1)64-70).
# recombinant CYPs = recombinant CYPs (Homo sapiens, UniProt P08684); experiment: metabolism by recombinant CYPs; assay type: in vitro ADME
# Sequence of recombinant CYPs (P08684 whole entry): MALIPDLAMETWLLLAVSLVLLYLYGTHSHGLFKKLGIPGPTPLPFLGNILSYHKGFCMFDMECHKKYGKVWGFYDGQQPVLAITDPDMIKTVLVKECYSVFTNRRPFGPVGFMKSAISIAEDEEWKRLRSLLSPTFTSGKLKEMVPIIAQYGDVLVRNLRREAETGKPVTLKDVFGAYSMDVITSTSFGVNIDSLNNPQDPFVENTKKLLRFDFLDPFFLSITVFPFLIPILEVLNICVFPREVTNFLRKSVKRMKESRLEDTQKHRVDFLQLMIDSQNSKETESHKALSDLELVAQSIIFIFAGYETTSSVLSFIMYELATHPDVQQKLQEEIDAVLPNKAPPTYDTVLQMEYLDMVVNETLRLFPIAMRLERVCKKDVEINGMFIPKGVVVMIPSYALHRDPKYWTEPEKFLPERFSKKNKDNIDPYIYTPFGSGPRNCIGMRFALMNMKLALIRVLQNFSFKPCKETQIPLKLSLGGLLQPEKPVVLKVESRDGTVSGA
# Text: as §1
# HCV = settings: monotherapy; cited from earlier work
# [3] = po, 100 mg, Day 1 (alone), R7227 100 mg single oral dose
# [4] = multiple doses of ritonavir 100 mg every 12 hours
structure (smiles),measurement,setting,value
CC(C)(C)OC(=O)N[C@H]1CCCCC/C=C\[C@@H]2C[C@@]2(C(=O)NS(=O)(=O)C2CC2)NC(=O)[C@@H]2C[C@@H](OC(=O)N3Cc4cccc(F)c4C3)CN2C1=O [R7227],pIC50,genotype 1 HCV replicon,8.75
same,"AUC0→∞, ratio of GLSM (90% CI)",[1]; Day 3 vs Day 1,"5.70 (4.07, 7.99)"
same,"Cmax, ratio of GLSM (90% CI)",[1]; Day 3 vs Day 1,"3.14 (1.87, 5.25)"
same,"C12 h, ratio of GLSM (90% CI)","[1]; Day 3 vs Day 1, N 8, non-missing non-BLQ data","50.6 (25.6, 100)"
same,"C12 h, ratio of GLSM (90% CI)","[1]; Day 3 vs Day 1, N 12, includes extrapolated day 1 values","65.2 (34.8, 122)"
same,"AUC0→∞, ratio of GLSM (90% CI)",[1]; Day 12 vs Day 1,"5.50 (4.05, 7.48)"
same,"Cmax, ratio of GLSM (90% CI)",[1]; Day 12 vs Day 1,"3.25 (2.12, 4.96)"
same,"C12 h, ratio of GLSM (90% CI)","[1]; Day 12 vs Day 1, N 8, non-missing non-BLQ data","26.9 (17.7, 41.0)"
same,"C12 h, ratio of GLSM (90% CI)","[1]; Day 12 vs Day 1, N 12, includes extrapolated day 1 values","42.4 (25.7, 70.0)"
same,concentration at 12 h,"[1]; oral, 100 mg, Day 1 (alone), N 8, non-missing non-BLQ data from all three treatment days",0.02 ng/mL
same,concentration at 12 h,"[1]; oral, 100 mg, Day 1 (alone), N 12, includes extrapolated C12 h values from 4 subjects with BLQ values on day 1",0.01 ng/mL
same,concentration at 12 h,"[1]; oral, Day 3 (with ritonavir single dose), N 8, non-missing non-BLQ data",1 ng/mL
same,Cmax,"[1]; oral, Day 3 (with ritonavir single dose)",26.4 ng/mL
same,concentration at 12 h,"[1]; oral, Day 3 (with ritonavir single dose), N 12 (set including extrapolated day 1 values)",0.55 ng/mL
same,concentration at 12 h,"[1]; oral, Day 12 (with ritonavir multiple dose), N 8, non-missing non-BLQ data",0.53 ng/mL
same,Cmax,"[1]; oral, Day 12 (with ritonavir multiple dose)",27.3 ng/mL
same,concentration at 12 h,"[1]; oral, Day 12 (with ritonavir multiple dose), N 12 (set including extrapolated day 1 values)",0.36 ng/mL
same,AUC(0-inf),[1]; [3],14.4 ng·h/mL
same,Cmax,[1]; [3],8.4 ng/mL
same,AUC(0-inf),"[1]; po, 100 mg, Day 3 (with ritonavir single dose), R7227 100 mg oral",82 ng·h/mL
same,AUC(0-inf),"[1]; po, 100 mg, Day 12 (with ritonavir multiple dose), R7227 100 mg oral",79.4 ng·h/mL
same,increase of R7227 AUC0→∞,[1]; [4],approximately 5.5 fold
same,increase of R7227 Cmax,[1]; [4],~3.25 fold
same,CYP isozymes participating in metabolism,CYP isozymes,"multiple CYP isozymes including 3A4, 2C19, 1A2, 2D6, and 2C9 participate in the metabolism"
same,pIC50,NS3/4A protease,≥ 9.65
same,highest safe and tolerable dose,[2],1600 mg
same,metabolism by recombinant CYPs,recombinant CYPs,only CYP3A4 metabolized R7227 to an extent that could influence the pharmacokinetics
"NC(=O)c1ncn([C@@H]2O[C@H](CO)[C@@H](O)[C@H]2O)n1 [ribavirin, 1-((2R,3R,4S,5R)-3,4-dihydroxy-5-hydroxymethyl-tetrahydro-furan-2-yl)-1H-[1,2,4]triazole-3-carboxylic acid amide]",patients with serum amino transferase levels reduced to normal,HCV,40%
